Here are results for five compounds from patent publication US20100152267A1, “NOVEL RIFAMYCIN 3,4-(3-SUBSTITUTED AMINOMETHYL) FUSED PYRROLO DERIVATIVES” (priority 2008, published 2010).

Holding throughout (type): cell-based
The test system of assay [1] is Enterococcus faecium OC 3312 vancomycin resistant. Put plainly: MIC by microdilution broth method (NCCLS), A Strain. As to conditions: read-out: MIC A Strain. How it is done: (§1) Minimum inhibitory concentration (MIC) is an indicator of in vitro antibacterial activity. […] The in vitro antimicrobial activity of representative compounds of the present invention was determined by the microdilution broth method following the test method from the National Committee for Clinical Laboratory Standards (NCCLS). This method is described in the NCCLS Document M7-A4, Vol. 17, No. 2, “Methods for Dilution Antimicrobial Susceptibility Test for Bacteria that Grow Aerobically—Fourth Edition”, which is incorporated herein by reference.
(§2) In this method two-fold serial dilutions of test compound in cation adjusted Mueller-Hinton broth were added to wells in microdilution trays. The test organisms were prepared by adjusting the turbidity of actively growing broth cultures so that the final concentration of test organism after it is added to the wells was approximately 5×10^4 CFU/well. Following inoculation of the microdilution trays, the trays were incubated at 35° C. for 16-20 hours and then read. The amount of growth in the wells containing the test compound was compared with the amount of growth in the growth-control wells (no test compound) used in each tray.
(§3) Representative compounds of the present invention were tested against a variety of pathogenic bacteria with results as listed in Table 2, below.
Background: In broth dilution the organism is exposed to a series of concentrations in liquid medium.

Assay [2] has as its system Methicillin-resistant Staphylococcus aureus OC 3726 COL. Put plainly: MIC by microdilution broth method (NCCLS), B Strain. As to conditions: read-out: MIC B Strain. How it is done: as §1, §2, §3
Assay [3] concerns Staphylococcus aureus OC4172. Put plainly: MIC by microdilution broth method (NCCLS), C Strain. The following applies: cation adjusted Mueller-Hinton broth, 35° C., 16-20 hours. How it is done:
as §1, §2, §3

In assay [4] the test system is Methicillin-resistant Staphylococcus aureus OC 2878. Put plainly: MIC by microdilution broth method (NCCLS), D Strain. The following applies: read-out: MIC D Strain. How it is done: as §1, §2, §3

Converted amounts (≈) assume the structure as drawn. Bounds are passed on as bounds.

A word on the MIC: it is the smallest concentration in the dilution series that meets the test's criterion for growth inhibition. For the compound `CO[C@H]1/C=C/O[C@@]2(C)Oc3c(C)c(O)c4c(O)c(c5c(CN)c[nH]c5c4c3C2=O)NC(=O)/C(C)=C\C=C\[C@H](C)[C@H](O)[C@@H](C)[C@@H](O)[C@@H](C)[C@H](OC(C)=O)[C@@H]1C` [Compound 1], the minimal inhibitory concentration (MIC) is less than 1 µg/mL in assay [1], 0.25 µg/mL (≈ 0.333 µM) in assay [2], 0.12 µg/mL (≈ 0.16 µM) in assay [3] and 0.25 µg/mL (≈ 0.333 µM) in assay [4].
Consider `CO[C@H]1/C=C/O[C@@]2(C)Oc3c(C)c(O)c4c(O)c(c5c(CN6CCCCC6)c[nH]c5c4c3C2=O)NC(=O)/C(C)=C\C=C\[C@H](C)[C@H](O)[C@@H](C)[C@@H](O)[C@@H](C)[C@H](OC(C)=O)[C@@H]1C` [Compound 2], for which the minimum inhibitory concentration (MIC) in assay [1] is 8 µg/mL (≈ 9.78 µM); in assay [2] it was 4 µg/mL (≈ 4.89 µM); in assay [3] it was 4 µg/mL (≈ 4.89 µM); in assay [4], 4 µg/mL (≈ 4.89 µM).
For `CO[C@H]1/C=C/O[C@@]2(C)Oc3c(C)c(O)c4c(O)c(c5c(CN(C)Cc6ccc(N7CCN(C)CC7)cc6)c[nH]c5c4c3C2=O)NC(=O)/C(C)=C\C=C\[C@H](C)[C@H](O)[C@@H](C)[C@@H](O)[C@@H](C)[C@H](OC(C)=O)[C@@H]1C` [Compound 3], the MIC in assay [1] is 2 µg/mL (≈ 2.1 µM); in assay [2] it was 1 µg/mL (≈ 1.05 µM); in assay [3] it was 1 µg/mL (≈ 1.05 µM); in assay [4], 1 µg/mL (≈ 1.05 µM).
`CO[C@H]1/C=C/O[C@@]2(C)Oc3c(C)c(O)c4c(O)c(c5c(CNCc6ccc(N7CCN(C)CC7)cc6)c[nH]c5c4c3C2=O)NC(=O)/C(C)=C\C=C\[C@H](C)[C@H](O)[C@@H](C)[C@@H](O)[C@@H](C)[C@H](OC(C)=O)[C@@H]1C` [Compound 4]: the minimal inhibitory concentration (MIC) in assay [1] was found to be 1 µg/mL (≈ 1.07 µM); in assay [2], 0.5 µg/mL (≈ 0.533 µM); in assay [3], 1 µg/mL (≈ 1.07 µM); in assay [4], 0.5 µg/mL (≈ 0.533 µM).
Turning to `CO[C@H]1/C=C/O[C@@]2(C)Oc3c(C)c(O)c4c(O)c(c5c(CN(Cc6ccc(N7CCN(C)CC7)cc6)Cc6ccc(N7CCN(C)CC7)cc6)c[nH]c5c4c3C2=O)NC(=O)/C(C)=C\C=C\[C@H](C)[C@H](O)[C@@H](C)[C@@H](O)[C@@H](C)[C@H](OC(C)=O)[C@@H]1C` [Compound 5], the minimal inhibitory concentration (MIC) in assay [1] is 1 µg/mL (≈ 0.888 µM); in assay [2] it was 0.25 µg/mL (≈ 0.222 µM); in assay [3] it was 0.25 µg/mL (≈ 0.222 µM); in assay [4], 0.25 µg/mL (≈ 0.222 µM).
